In US20150344444A1, “BET-PROTEIN-INHIBITING DIHYDROXYQUINOXALINONES” (BAYER PHARMA AKTIENGESELLSCHAFT, priority 2012, published 2015):

Assays:
B16F10 cells = assay: B16F10 cell proliferation assay (alamarBlue); format: cell-based; settings: B16-F10; inhibition of cell proliferation, 96 hours, mouse melanoma cell line
Procedure: (§1) In accordance with the invention, the ability of the substances to inhibit cell proliferation was determined Cell viability was determined by means of the alamarBlue® reagent (Invitrogen) in a Victor X3 Multilabel Reader (Perkin Elmer). The excitation wavelength was 530 nm and the emission wavelength […].
The B16F10 cells (ATCC, CRL-6475) were sown at a concentration of 300-500 cells/well in 100 μl of growth medium (DMEM with phenol red, 10% FCS) on 96-well microtitre plates.
(§2) After overnight incubation at 37° C., the fluorescence values were determined (CI values). Then the plates were treated with various substance dilutions (1E-5 M, 3E-6 M, 1E-6 M, 3E-7 M, 1E-7 M, 3E-8 M, 1E-8 M) and incubated at 37° C. over 96 hours (MOLM-13, B16F10 cells) or 120 hours (MOLP-8 cells). Subsequently, the fluorescence values were determined (CO values). For the data analysis, the CI values were subtracted from the CO values and the results were compared between cells which had been treated with various dilutions of the substance or only with buffer solution. The IC50 values (substance concentration needed for 50% inhibition of cell proliferation) were calculated therefrom.
B16F10 mouse melanoma cell line

[1] = target: T1, BRD4 Bromo Domain 1 [BRD4(1)] (Homo sapiens, UniProt O60885); assay: BRD4(1)/acetylated peptide H4 binding assay (TR-FRET); settings: inhibition of interaction between His6-tagged BRD4(1) (amino acids 67-152) and acetylated histone H4 peptide
T1 construct: N-terminally His6-tagged BRD4(1) (amino acids 67-152); made in house; host or cells: E. coli
Excerpt: Protein-Protein Interaction Assay: BRD4/Acetylated Peptide H4 Binding Assay
1. Assay Description for BRD4 Bromo Domain 1 [BRD4(1)]
To assess the BRD4(1) binding strength of the substances described in this application, the ability thereof to inhibit the interaction between BRD4(1) and acetylated histone H4 in a dose-dependent manner was quantified.
For this purpose, a time-resolved fluorescence resonance energy transfer (TR-FRET) assay was used, which measures the binding between N-terminally His6-tagged BRD4(1) (amino acids 67-152) and a synthetic acetylated histone H4 (Ac-H4) peptide with sequence GRGK(Ac)GGK(Ac)GLGK(Ac)GGAK(Ac)RHGSGSK-biotin. The recombinant BRD4(1) protein produced in house according to Filippakopoulos et al., Cell, 2012, 149:214-231 was expressed in E. coli and purified by means of (Ni-NTA) affinity and (Sephadex G-75) size exclusion chromatography. The Ac-H4 peptide can be purchased, for example, from Biosyntan (Berlin, Germany).
In the assay, typically 11 different concentrations of each substance (0.1 nM, 0.33 nM, 1.1 nM, 3.8 nM, 13 nM, 44 nM, 0.15 μM, 0.51 μM, 1.7 μM, 5.9 μM and 20 μM) were analysed as duplicates on the same microtitre plate. For this purpose, 100-fold concentrated solutions in DMSO were prepared by serial dilutions (1:3.4) of a 2 mM stock solution into a clear, 384-well microtitre plate (Greiner Bio-One, Frickenhausen, Germany). From this, 50 nl were transferred into a black test plate (Greiner Bio-One, Frickenhausen, Germany). The test was started by the addition of 2 μl of a 2.5-fold concentrated BRD4(1) solution (final concentration typically 10 nM in the 5 μl of reaction volume) in aqueous assay buffer [50 mM HEPES pH 7.5, 50 mM sodium chloride (NaCl), 0.25 mM CHAPS and 0.05% serum albumin (BSA)] to the substances in the test plate. This was followed by a 10-minute incubation step at 22° C. for the pre-equilibration of putative complexes between BRD4(1) and the substances.
The mixture was then incubated in the dark at 22° C. for one hour and then at 4° C. for at least 3 hours and for no longer than overnight. The formation of BRD4(1)/Ac-H4 complexes was determined by the measurement of the resonance energy transfer from the streptavidin-Eu cryptate to the anti-6His-XL665 antibody present in the reaction. For this purpose, the fluorescence emission was measured at 620 nm and 665 nm after excitation at 330-350 nm in a TR-FRET measuring instrument, for example a Rubystar or Pherastar (both from BMG Lab Technologies, Offenburg, Germany) or a Viewlux (Perkin-Elmer). The ratio of the emissions at 665 nm and at 622 nm was taken as an indicator of the amount of BRD4(1)/Ac-H4 complexes formed.
The data (ratios) obtained were normalized, with 0% inhibition corresponding to the mean from the measurements for a set of controls (typically 32 data points) in which all the reagents were present. In these, in place of test substances, 50 nl of DMSO (100%) were used Inhibition of 100% corresponded to the mean from the measurements for a set of controls (typically 32 data points) in which all the reagents except BRD4(1) were present. The IC50 was determined by regression analysis based on a 4-parameter equation (minimum, maximum, IC50, Hill; Y=max+(min−max)/(1+(X/IC50)Hill).

MOLM-13 cells = assay: MOLM-13 cell proliferation assay (alamarBlue); format: cell-based; settings: inhibition of cell proliferation, 96 hours, human AML cell line
Procedure: as §1
The MOLM-13 cells (DSMZ, ACC 554) were sown at a concentration of 4000 cells/well in 100 μl of growth medium (RPMI1640, 10% FCS) on 96-well microtitre plates.
as §2
MOLM-13 human AML (acute myeloid leukaemia) cell line

SMILES	IC50 (B16F10 cells) [nM]	IC50 [1] [nM]	IC50 (MOLM-13 cells) [nM]
CC(=O)N1CCC(NC(=O)c2ccc(Nc3ccc4c(c3)N(C3CCOCC3)[C@H](C)C(=O)N4C)cc2)CC1 [Example 32, N-(1-acetylpiperidin-4-yl)-4-{[(3R)-1,3-dimethyl-2-oxo-4-(tetrahydro-2H-pyran-4-yl)-1,2,3,4-tetrahydroquinoxalin-6-yl]amino}benzamide]	6420	371	3450
C[C@@H]1C(=O)N(C)c2ccc(Nc3ccc(S(=O)(=O)N(C)C)cc3)cc2N1C1CCOCC1 [Example 46, 4-{[(3R)-1,3-dimethyl-2-oxo-4-(tetrahydro-2H-pyran-4-yl)-1,2,3,4-tetrahydroquinoxalin-6-yl]amino}-N,N-dimethylbenzenesulphonamide]	600	145	719
C[C@@H]1C(=O)N(C)c2ccc(Nc3ccc(C(=O)N4CCOCC4)cc3)cc2N1C1CCCCCC1 [Example 24, (3R)-4-cycloheptyl-1,3-dimethyl-6-{[4-(morpholin-4-ylcarbonyl)phenyl]amino}-3,4-dihydroquinoxalin-2(1H)-one]	732	143	967
C[C@@H]1C(=O)N(C)c2ccc(Nc3ccc(C(=O)NC4CC4)cc3)cc2N1Cc1ccccc1 [Example 10, 4-{[(3R)-4-benzyl-1,3-dimethyl-2-oxo-1,2,3,4-tetrahydroquinoxalin-6-yl]amino}-N-cyclopropylbenzamide]	–	308	527
C[C@@H]1C(=O)N(C)c2ccc(Nc3ccc(S(=O)(=O)N4CCN(C)CC4)cc3)cc2N1C1CCOCC1 [Example 48, (3R)-1,3-dimethyl-6-({4-[(4-methylpiperazin-1-yl)sulphonyl]phenyl}amino)-4-(tetrahydro-2H-pyran-4-yl)-3,4-dihydroquinoxalin-2(1H)-one]	1450	237	1250
C[C@@H]1C(=O)N(C)c2ccc(Nc3ccc(C(=O)NC4CCN(C)CC4)cc3)cc2N1Cc1ccccc1 [Example 11, 4-{[(3R)-4-benzyl-1,3-dimethyl-2-oxo-1,2,3,4-tetrahydroquinoxalin-6-yl]amino}-N-(1-methylpiperidin-4-yl)benzamide]	768	239	364
C[C@@H]1C(=O)N(C)c2ccc(Nc3ccc(C(=O)NCC4COC4)cc3)cc2N1Cc1ccccc1 [Example 9, 4-{[(3R)-4-benzyl-1,3-dimethyl-2-oxo-1,2,3,4-tetrahydroquinoxalin-6-yl]amino}-N-(oxetan-3-ylmethyl)benzamide]	365	249	366
COc1ccc(CN2c3cc(Nc4ccc(C(=O)NCCN5CCN(C)CC5)cc4)ccc3N(C)C(=O)[C@H]2C)cc1 [Example 21, 4-{[(3R)-4-(4-methoxybenzyl)-1,3-dimethyl-2-oxo-1,2,3,4-tetrahydroquinoxalin-6-yl]amino}-N-[2-(4-methylpiperazin-1-yl)ethyl]benzamide]	403	108	275
COc1ccc(CN2c3cc(Nc4ccc(S(=O)(=O)N5CCN(C)CC5)cc4)ccc3N(C)C(=O)[C@H]2C)cc1 [Example 43, (3R)-4-(4-methoxybenzyl)-1,3-dimethyl-6-({4-[(4-methylpiperazin-1-yl)sulphonyl]phenyl}amino)-3,4-dihydroquinoxalin-2(1H)-one]	212	103	145
COc1ccc(CN2c3cc(Nc4ccc(C(=O)N5CC6(COC6)C5)cc4)ccc3N(C)C(=O)[C@H]2C)cc1 [Example 20, (3R)-4-(4-methoxybenzyl)-1,3-dimethyl-6-{[4-(2-oxa-6-azaspiro[3.3]hept-6-ylcarbonyl)phenyl]amino}-3,4-dihydroquinoxalin-2(1H)-one]	256	105	351
C[C@@H]1C(=O)N(C)c2ccc(Nc3ccc(C(=O)N4CCOCC4)cc3)cc2N1Cc1ccccc1 [Example 12, (3R)-4-benzyl-1,3-dimethyl-6-{[4-(morpholin-4-ylcarbonyl)phenyl]amino}-3,4-dihydroquinoxalin-2(1H)-one]	179	156	300
C[C@@H]1C(=O)N(C)c2ccc(Nc3ccc(C(=O)N(C)C)cc3)cc2N1C1CCCC1 [Example 8, 4-{[(3R)-4-cyclopentyl-1,3-dimethyl-2-oxo-1,2,3,4-tetrahydroquinoxalin-6-yl]amino}-N,N-dimethylbenzamide]	584	98	627
C[C@@H]1C(=O)N(C)c2ccc(Nc3ccc(S(=O)(=O)N4CCOCC4)cc3)cc2N1Cc1ccccc1 [Example 13, (3R)-4-benzyl-1,3-dimethyl-6-{[4-(morpholin-4-ylsulphonyl)phenyl]amino}-3,4-dihydroquinoxalin-2(1H)-one]	136	168	223
C[C@@H]1C(=O)N(C)c2ccc(Nc3ccc(C(=O)N4CCOCC4)cc3)cc2N1C1CCCC1 [Example 6, (3R)-4-cyclopentyl-1,3-dimethyl-6-{[4-(morpholin-4-ylcarbonyl)phenyl]amino}-3,4-dihydroquinoxalin-2(1H)-one]	371	74	698
COc1ccc(CN2c3cc(Nc4ccc(C(=O)N5CCN(C(C)C)CC5)cc4)ccc3N(C)C(=O)[C@H]2C)cc1 [Example 22, (3R)-4-(4-methoxybenzyl)-1,3-dimethyl-6-[(4-{[4-(propan-2-yl)piperazin-1-yl]carbonyl}phenyl)amino]-3,4-dihydroquinoxalin-2(1H)-one]	522	175	261
C[C@@H]1C(=O)N(C)c2ccc(Nc3ccc(C(=O)N4CC5(CCS5(=O)=O)C4)cc3)cc2N1C1CCOCC1 [Example 31, (3R)-6-({4-[(1,1-dioxido-1-thia-6-azaspiro[3.3]hept-6-yl)carbonyl]phenyl}amino)-1,3-dimethyl-4-(tetrahydro-2H-pyran-4-yl)-3,4-dihydroquinoxalin-2(1H)-one]	3240	192	1790
C[C@@H]1C(=O)N(C)c2ccc(Nc3ccc(C(=O)NCC4COC4)cc3)cc2N1C1CCCCCC1 [Example 25, 4-{[(3R)-4-cycloheptyl-1,3-dimethyl-2-oxo-1,2,3,4-tetrahydroquinoxalin-6-yl]amino}-N-(oxetan-3-ylmethyl)benzamide]	–	454	1360
